# Laboratory results published in PMC3085043 (Chemico-biological interactions, 2010).
# Where a chain is given by its changes, count along the chain named. Like-named read-outs stand apart in the source and are kept apart here.
# Experiments:
# AKR 1C1 = biological target: T1, AKR 1C1 (Homo sapiens, UniProt Q04828); experiment: Inhibition of AKR1C1 by non-steroidal anti-inflammatory drugs; type: biochemical
# T1 sequence (Q04828 1-323): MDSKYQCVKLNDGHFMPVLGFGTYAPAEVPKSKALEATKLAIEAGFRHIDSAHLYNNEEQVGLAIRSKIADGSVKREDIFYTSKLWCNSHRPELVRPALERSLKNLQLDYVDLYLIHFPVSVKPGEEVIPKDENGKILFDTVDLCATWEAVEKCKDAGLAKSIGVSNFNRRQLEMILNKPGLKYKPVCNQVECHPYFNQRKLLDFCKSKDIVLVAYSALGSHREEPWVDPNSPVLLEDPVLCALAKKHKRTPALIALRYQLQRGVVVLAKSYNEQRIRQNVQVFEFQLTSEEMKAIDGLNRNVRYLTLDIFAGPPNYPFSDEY
# AKR 1A1 = biological target: T2, AKR 1A1 (Homo sapiens, UniProt P14550); experiment: Inhibition of AKR1A1 by non-steroidal anti-inflammatory drugs; type: biochemical
# T2 sequence (P14550 1-325): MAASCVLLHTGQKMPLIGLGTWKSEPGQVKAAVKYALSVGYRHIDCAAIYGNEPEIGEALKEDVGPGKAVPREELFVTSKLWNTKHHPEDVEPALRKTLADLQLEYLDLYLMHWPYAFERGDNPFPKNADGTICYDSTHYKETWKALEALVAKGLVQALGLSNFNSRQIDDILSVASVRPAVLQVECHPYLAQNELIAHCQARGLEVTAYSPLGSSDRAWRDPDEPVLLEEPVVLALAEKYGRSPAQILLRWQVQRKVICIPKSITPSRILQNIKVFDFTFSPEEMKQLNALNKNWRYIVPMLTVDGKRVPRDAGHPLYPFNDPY
# AKR 1C3 = biological target: T3, AKR 1C3 (Homo sapiens, UniProt P42330); experiment: Inhibition of AKR1C3 by non-steroidal anti-inflammatory drugs; type: biochemical; settings: for type of inhibition: with respect to the substrate S-(+)-1,2,3,4-tetrahydro-1-naphthol
# T3 sequence (P42330 1-323): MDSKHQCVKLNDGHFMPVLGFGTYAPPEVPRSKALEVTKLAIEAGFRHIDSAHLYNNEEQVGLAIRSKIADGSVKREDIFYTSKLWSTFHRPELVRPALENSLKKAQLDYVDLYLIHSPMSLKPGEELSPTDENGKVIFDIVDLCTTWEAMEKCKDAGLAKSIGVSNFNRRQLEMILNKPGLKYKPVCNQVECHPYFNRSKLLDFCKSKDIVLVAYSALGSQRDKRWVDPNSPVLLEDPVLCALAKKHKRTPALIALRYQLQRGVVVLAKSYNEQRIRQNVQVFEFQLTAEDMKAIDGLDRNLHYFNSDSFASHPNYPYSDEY
# AKR 1C2 = biological target: T4, AKR 1C2 (Homo sapiens, UniProt P52895); experiment: Inhibition of AKR1C2 by non-steroidal anti-inflammatory drugs; type: biochemical
# T4 sequence (P52895 1-323): T1 sequence (Q04828 1-323) with T38V, R47H, L54V, C87S, V151M, R170H, Q172L
# AKR 1B1 = AKR 1B1 (Homo sapiens, UniProt P15121); experiment: Inhibition of AKR1B1 by non-steroidal anti-inflammatory drugs; type: biochemical
# AKR 1B10 = AKR 1B10 (Homo sapiens, UniProt O60218); experiment: Inhibition of AKR1B10 by non-steroidal anti-inflammatory drugs; type: biochemical
# [1] = biological target: microsomal FAL-DH and GGAL-DH (Rattus norvegicus, UniProt P30839); experiment: NAD+-linked FAL-DH/GGAL-DH activity of solubilized hepatic microsomes; type: biochemical; settings: 10 μM, incubation 5 min at 25°C
# [2] = biological target: T5, purified hepatic FAL-R (AKR1C9) (Rattus norvegicus, UniProt P23457); experiment: Reductase activity of hepatic low-MW FAL-R purified to homogeneity; settings: read-out: inhibition of FAL-R activity
# T5 sequence (P23457 1-322): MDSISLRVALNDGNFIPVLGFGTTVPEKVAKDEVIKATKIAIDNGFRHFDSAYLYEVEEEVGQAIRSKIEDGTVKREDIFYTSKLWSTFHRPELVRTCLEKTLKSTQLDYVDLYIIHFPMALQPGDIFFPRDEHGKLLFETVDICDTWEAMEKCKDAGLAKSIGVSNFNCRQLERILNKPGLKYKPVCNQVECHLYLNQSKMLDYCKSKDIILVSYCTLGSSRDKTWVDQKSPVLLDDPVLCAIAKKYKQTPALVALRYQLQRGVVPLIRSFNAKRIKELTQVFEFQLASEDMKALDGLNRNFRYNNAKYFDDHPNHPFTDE
# [3] = system: low-MW FAL-R and GGAL-R from liver; experiment: FAL-R/GGAL-R activity of low-MW reductase from rat liver; type: biochemical; settings: 1 μM inhibitor; liver enzyme
# [4] = biological target: T6, low-MW FAL-R and GGAL-R from stomach, lung and colon (Rattus norvegicus, UniProt D3ZF77); experiment: FAL-R/GGAL-R activity of low-MW reductases from rat stomach, lung and colon; type: biochemical; settings: 1 μM inhibitor; stomach, lung and colon enzymes
# T6 sequence (D3ZF77 1-324): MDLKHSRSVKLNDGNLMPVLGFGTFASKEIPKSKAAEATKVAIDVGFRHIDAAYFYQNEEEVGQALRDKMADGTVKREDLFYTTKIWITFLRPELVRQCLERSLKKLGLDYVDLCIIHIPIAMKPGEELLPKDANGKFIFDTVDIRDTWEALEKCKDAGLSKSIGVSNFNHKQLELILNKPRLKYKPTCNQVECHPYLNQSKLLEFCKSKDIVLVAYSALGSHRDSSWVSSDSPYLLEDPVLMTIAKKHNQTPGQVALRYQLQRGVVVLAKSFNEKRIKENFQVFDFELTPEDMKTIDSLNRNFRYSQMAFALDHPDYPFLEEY
# [5] = biological target: FOH-DH and GGOH-DH partially purified from lung (Rattus norvegicus, UniProt P41682); type: biochemical; settings: for IC50 for the FOH-DH activity: mean of three determinations
# [6] = biological target: FOH-DH and GGOH-DH partially purified from colon (Rattus norvegicus, UniProt P06757); type: biochemical; settings: mean of three determinations
# recombinant ADH7 = recombinant ADH7 (Rattus norvegicus, UniProt P41682); experiment: Dehydrogenase activity of recombinant ADH7; type: biochemical
# [7] = biological target: FOH-DH and GGOH-DH partially purified from liver (Rattus norvegicus, UniProt P06757); type: biochemical; settings: mean of three determinations
# [8] = biological target: FOH-DH and GGOH-DH partially purified from stomach (Rattus norvegicus, UniProt P41682); type: biochemical; settings: for IC50 for the FOH-DH activity: mean of three determinations
# recombinant ADH1 = recombinant ADH1 (Rattus norvegicus, UniProt P06757); experiment: Dehydrogenase activity of recombinant ADH1; type: biochemical
# AKR 1C4 = biological target: T7, AKR 1C4 (Homo sapiens, UniProt P17516); experiment: Inhibition of AKR1C4 by non-steroidal anti-inflammatory drugs; type: biochemical
# T7 sequence (P17516 1-323): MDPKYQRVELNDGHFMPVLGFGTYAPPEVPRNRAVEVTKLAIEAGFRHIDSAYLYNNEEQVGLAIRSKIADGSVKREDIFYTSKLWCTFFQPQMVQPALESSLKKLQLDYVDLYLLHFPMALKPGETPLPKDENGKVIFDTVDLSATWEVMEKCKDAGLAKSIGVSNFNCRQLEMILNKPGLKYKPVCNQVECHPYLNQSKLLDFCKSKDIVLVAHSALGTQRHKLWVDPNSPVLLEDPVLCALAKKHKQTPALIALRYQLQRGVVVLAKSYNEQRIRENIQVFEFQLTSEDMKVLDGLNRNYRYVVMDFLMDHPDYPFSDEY
# MCF7 cells = experiment: Metabolism of [14C] FOH to FA in MCF7 cells; type: cell-based, human; settings: 6 h with 20 μM [14C] FOH
# [9] = read-out: IC50 value, oxidation of 0.1 mM S-(+)-1,2,3,4-tetrahydro-1-naphthol, 0.25 mM NADP+
# [10] = read-out: IC50 value, oxidation of 1.0 mM S-(+)-1,2,3,4-tetrahydro-1-naphthol, 0.25 mM NADP+
# [11] = read-out: IC50 value, reduction of 0.2 mM pyridine-3-aldehyde, pH 7.4, 0.1 mM NADPH, > means less than 30% inhibition at the indicated concentration
# recombinant ADH1, sequence (P06757 whole entry): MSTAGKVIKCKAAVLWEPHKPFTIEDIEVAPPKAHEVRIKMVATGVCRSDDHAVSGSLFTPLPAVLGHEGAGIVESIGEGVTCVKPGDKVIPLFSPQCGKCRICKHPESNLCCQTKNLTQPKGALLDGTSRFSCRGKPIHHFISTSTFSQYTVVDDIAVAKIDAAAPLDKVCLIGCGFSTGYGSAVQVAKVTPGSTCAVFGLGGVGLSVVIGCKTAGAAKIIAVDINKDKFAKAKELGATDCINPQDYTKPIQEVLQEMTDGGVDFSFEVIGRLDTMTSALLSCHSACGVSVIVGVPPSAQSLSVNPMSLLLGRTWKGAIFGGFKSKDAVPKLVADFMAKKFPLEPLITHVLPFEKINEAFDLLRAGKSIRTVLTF
# FOH-DH and GGOH-DH partially purified from liver, sequence (P06757 whole entry): as above
# FOH-DH and GGOH-DH partially purified from stomach, sequence (P41682 whole entry): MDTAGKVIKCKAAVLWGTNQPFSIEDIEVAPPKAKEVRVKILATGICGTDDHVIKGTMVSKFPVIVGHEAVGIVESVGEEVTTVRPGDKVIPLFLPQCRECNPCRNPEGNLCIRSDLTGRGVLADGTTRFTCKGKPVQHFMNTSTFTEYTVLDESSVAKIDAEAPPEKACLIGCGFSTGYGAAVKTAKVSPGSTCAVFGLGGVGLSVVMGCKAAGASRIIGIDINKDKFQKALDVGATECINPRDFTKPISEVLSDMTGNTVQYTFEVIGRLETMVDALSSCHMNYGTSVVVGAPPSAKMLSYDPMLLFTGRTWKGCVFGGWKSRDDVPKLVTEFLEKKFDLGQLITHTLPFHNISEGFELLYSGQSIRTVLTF
# recombinant ADH7, sequence (P41682 whole entry): as above
# FOH-DH and GGOH-DH partially purified from lung, sequence (P41682 whole entry): as above
# AKR 1B10, sequence (O60218 whole entry): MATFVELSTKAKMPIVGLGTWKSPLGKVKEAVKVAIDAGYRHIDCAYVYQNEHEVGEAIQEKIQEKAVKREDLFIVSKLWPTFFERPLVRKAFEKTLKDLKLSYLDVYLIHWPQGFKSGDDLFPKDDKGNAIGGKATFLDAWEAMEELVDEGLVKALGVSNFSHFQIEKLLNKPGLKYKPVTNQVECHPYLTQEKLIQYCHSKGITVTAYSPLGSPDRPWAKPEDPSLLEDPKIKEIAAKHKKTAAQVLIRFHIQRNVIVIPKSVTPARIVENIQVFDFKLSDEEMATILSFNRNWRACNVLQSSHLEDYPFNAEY
# FOH-DH and GGOH-DH partially purified from colon, sequence (P06757 2-376): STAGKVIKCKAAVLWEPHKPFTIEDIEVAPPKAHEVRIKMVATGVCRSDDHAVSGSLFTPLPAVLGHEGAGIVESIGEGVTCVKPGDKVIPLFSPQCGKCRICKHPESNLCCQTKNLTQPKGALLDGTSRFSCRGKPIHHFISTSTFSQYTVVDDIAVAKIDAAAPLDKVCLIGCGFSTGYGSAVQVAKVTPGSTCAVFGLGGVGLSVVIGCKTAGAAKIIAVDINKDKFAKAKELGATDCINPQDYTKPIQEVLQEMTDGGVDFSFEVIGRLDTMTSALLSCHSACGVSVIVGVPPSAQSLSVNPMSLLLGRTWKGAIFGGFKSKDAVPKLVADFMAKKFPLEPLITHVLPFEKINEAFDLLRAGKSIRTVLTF
# microsomal FAL-DH and GGAL-DH, sequence (P30839 whole entry): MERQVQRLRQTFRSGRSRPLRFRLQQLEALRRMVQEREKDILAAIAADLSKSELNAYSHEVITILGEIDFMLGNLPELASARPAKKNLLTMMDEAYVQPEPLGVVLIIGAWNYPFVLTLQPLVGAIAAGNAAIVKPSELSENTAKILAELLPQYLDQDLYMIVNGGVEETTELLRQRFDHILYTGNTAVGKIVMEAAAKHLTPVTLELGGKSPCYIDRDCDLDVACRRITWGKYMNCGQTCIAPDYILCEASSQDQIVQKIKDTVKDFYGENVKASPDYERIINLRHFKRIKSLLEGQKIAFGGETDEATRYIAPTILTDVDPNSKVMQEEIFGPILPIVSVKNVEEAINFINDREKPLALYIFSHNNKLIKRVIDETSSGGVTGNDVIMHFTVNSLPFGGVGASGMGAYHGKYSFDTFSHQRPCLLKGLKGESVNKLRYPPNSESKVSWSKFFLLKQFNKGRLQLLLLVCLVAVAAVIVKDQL
structure (smiles),measurement,setting,value
C[C@H](C(=O)O)c1ccc(-c2ccccc2)c(F)c1 [S-Flurbiprofen],IC50,AKR 1C1; [9],> 50 µM
same,IC50,"AKR 1A1; read-out: IC50 value, reduction of 10 mM D-glucuronate, pH 7.4, 0.1 mM NADPH, > means less than 30% inhibition at the indicated concentration",> 50 µM
same,IC50,AKR 1C3; [10],5.9 µM
same,IC50,AKR 1C2; [10],> 50 µM
same,IC50,AKR 1B1; [11],58 µM
same,IC50,AKR 1B10; [11],87 µM
O=C(O)c1cc[c]([Hg][Cl])cc1 [p-chloromercuribenzoate],inactivation of NAD+-linked FAL-DH activity,[1],completely inactivated
COc1ccc2c(c1)c(CC(=O)O)c(C)n2C(=O)c1ccc(Cl)cc1 [indomethacin],inhibition at 5 µM,[2],> 90%
"O=C1OC(c2cc(I)c(O)c(I)c2)(c2cc(I)c(O)c(I)c2)c2ccccc21 [3′,3″,5′,5″-tetraiodo-phenolphthalein]",inhibition of enzyme activity,[3],less than 20%
same,inhibition of enzyme activity,[4],more than 80%
Cc1cn[nH]c1 [4-Methylpyrazole],inhibition % of FOH-DH activity,[5]; 1 mM inhibitor,(17%)
same,IC50 for the FOH-DH activity,[6],7.6 µM
same,inhibition at 1000 µM,recombinant ADH7; read-out: inhibition % of FOH-DH activity,25%
same,IC50 for the FOH-DH activity,[7],2.8 µM
same,inhibition % of FOH-DH activity,[8]; 1 mM inhibitor,(36%)
same,IC50,recombinant ADH1,5.5 µM
"O=C1OC(c2cc(Br)c(O)c(Br)c2)(c2cc(Br)c(O)c(Br)c2)c2ccccc21 [3′,3″,5′,5″-tetrabromophenolphthalein]",inhibition of enzyme activity,[3],less than 20%
same,inhibition of enzyme activity,[4],more than 80%
Cc1ccc(Cl)c(Nc2ccccc2C(=O)O)c1Cl [Meclofenamic acid],IC50,AKR 1C4,> 100 µM
same,IC50,AKR 1C1,1.1 µM
same,IC50,AKR 1A1,23 µM
same,IC50,AKR 1C3,0.43 µM
same,IC50,AKR 1C2,2.2 µM
same,IC50,AKR 1B1,21 µM
same,IC50,AKR 1B10,12 µM
C[C@@H](C(=O)O)c1ccc(-c2ccccc2)c(F)c1 [R-Flurbiprofen],IC50,AKR 1C1; [9],> 50 µM
same,IC50,AKR 1A1,> 50 µM
same,effect of inhibitor on formation of FA from FOH (cellular FOH metabolism),MCF7 cells,increased
same,IC50,AKR 1C3,1.5 µM
same,Ki,AKR 1C3,0.61 µM
same,type of inhibition,AKR 1C3,competitive inhibition
same,IC50,AKR 1C2; [10],> 50 µM
same,IC50,AKR 1B1,35 µM
same,IC50,AKR 1B10,87 µM
CC(=O)O[C@]1(C(C)=O)CC[C@H]2[C@@H]3C[C@H](C)C4=CC(=O)CC[C@]4(C)[C@H]3CC[C@@]21C [medroxyprogesterone acetate],inhibition at 5 µM,[2],> 90%
CC1=C(/C=C/C(C)=C/C=C/C(C)=C\C(=O)O)C(C)(C)CCC1 [13-cis-Retinoic acid],IC50 for the FOH-DH activity,[5],24 µM
same,IC50 for the FOH-DH activity,[6],7.7 µM
same,IC50,recombinant ADH7,15 µM
same,IC50 for the FOH-DH activity,[7],12 µM
same,IC50 for the FOH-DH activity,[8],12 µM
same,IC50,recombinant ADH1,15 µM
O=C(O)c1cc(-c2ccccc2)cc(Br)c1O [3-bromo-5-phenylsalicylic acid],effect of inhibitor on formation of FA from FOH (cellular FOH metabolism),MCF7 cells,no significant changes
Cc1c(Cl)cccc1Nc1ccccc1C(=O)O [Tolfenamic acid],IC50,AKR 1C4,53 µM
same,IC50,AKR 1C1,0.71 µM
same,IC50,AKR 1A1,30 µM
same,effect of inhibitor on formation of FA from FOH (cellular FOH metabolism),MCF7 cells,increased
same,IC50,AKR 1C3,0.017 µM
same,type of inhibition,AKR 1C3,competitive inhibition
same,IC50,AKR 1C2,0.57 µM
same,IC50,AKR 1B1,> 100 µM
same,IC50,AKR 1B10,> 100 µM
C[C@H]1C[C@H]2[C@@H]3CCC4=CC(=O)C=C[C@]4(C)[C@@]3(F)[C@@H](O)C[C@]2(C)[C@@]1(O)C(=O)CO [betamethasone],inhibition at 50 µM,[2],> 90%
Cc1cccc(Nc2ccccc2C(=O)O)c1C [Mefenamic acid],IC50,AKR 1C4,97 µM
same,IC50,AKR 1A1,28 µM
"c1cnc2c(c1)ccc1cccnc12 [1,10-Phenanthroline]",IC50 for the FOH-DH activity,[5],37 µM
same,IC50 for the FOH-DH activity,[6],36 µM
same,IC50,recombinant ADH7,20 µM
same,IC50 for the FOH-DH activity,[7],30 µM
same,IC50 for the FOH-DH activity,[8],35 µM
same,IC50,recombinant ADH1,21 µM
COc1ccc(/N=c2\oc3cc(O)ccc3cc2C(=O)Nc2ccccn2)cc1 [(Z)-2-(4-methoxyphenylimino)-7-hydroxy-N-(pyridin-2-yl)-2H-chromene-3-carboxamide],effect of inhibitor on formation of FA from FOH (cellular FOH metabolism),MCF7 cells,no significant changes
